{
  "source": "patent US20150150787A1",
  "about": "(Pearl Therapeutics, Inc., priority 2013, published 2015)",
  "key": {"[1]": {"assay": "Aerosol performance by Next Generation Impactor, BD/GP/FF cosuspension MDIs (Example 2)", "assay_type": "physicochemical", "details": "NGI 30 LPM, versus mono/dual cosuspensions or other strengths", "experimental": "The aerosol performance of each of the triple cosuspension compositions was evaluated and compared to the aerosol performance provided by the GFF, BFF, and BD Mono cosuspensions. Aerosol performance and aerodynamic particle size distributions were obtained using the Next Generation Impactor (NGI) with the flow rate set to 30±1 LPM (n=3)."}, "[2]": {"assay": "Aerodynamic particle size distribution by Next Generation Impactor, MF/GP/FF triple cosuspension MDIs (Example 1)", "assay_type": "physicochemical", "details": "for FPM values when MF strength was varied: FF 4.8 μg and GPBr 18 μg/actuation, MF 100-300 μg/actuation", "protocol": "The FF, GPBr, and MF materials were provided as a separate species of active agent particles, with each of the active agents provided as micronized, crystalline material. The co-suspension compositions were provided in pressurized metered dose inhalers (“MDI” or “MDIs”), with each formulation prepared to provide a delivered dose of 4.8 μg/actuation and 18 μg/actuation, respectively, of FF and GPBr. However, the amount of MF included in the three different compositions was varied, with compositions prepared to provide a delivered dose of MF selected from one of 100 μg/actuation, 200 μg/actuation, and 300 μg/actuation.\nThe suspending particles used in these co-suspensions were perforated microstructures prepared as described herein using a phospholipid material (DSPC). Drug crystals of GPBr (Boehringer Ingelheim, Petersberg, Va.) were micronized by air jet milling after receipt (median size, X50, ˜1.6 μm), but the FF (Inke, S.A., Barcelona Spain; X50˜1.4 μm) and MF (Hovione, Loures Portugal; X50˜1.6 μm) drug crystals were used as received. The Co-suspension formulations were prepared in HFA 134a propellant (Mexichem, S.A., Tlanepantla Mexico) and filled into 14 mL fluorinated ethylene polymer coated aluminum canisters (Presspart, Blackburn, UK), packaged with 50 μl valves, and delivered using an actuator with orifice size 0.3 mm (Bespak, King's Lynn, UK). Aerodynamic particle size distributions (aPSD) were obtained using the Next Generation Impactor (NGI) with the flow rate set to 30±1 LPM (n=3). Drug content was measured using ion-exchange HPLC with UV detection for FF and GP or reversed-phase HPLC with UV detection for MF."}},
  "data": [
    {"compound": "COc1ccc(C[C@@H](C)NC[C@H](O)c2ccc(O)c(NC=O)c2)cc1", "note": "(racemic) [FF, (±)-2-hydroxy-5-[(1RS)-1-hydroxy-2-[[(1RS)-2-(4-methoxyphenyl)-1-methylethyl]-amino]ethyl] formanilide]", "values": [
      {"measurement": "Coformulation effect (aerosol performance) when formulated in the triple cosuspensions", "setting": "[1]", "result": "no coformulation effect was observed"},
      {"measurement": "FPM values when MF strength was varied", "setting": "[2]", "result": "remained virtually unchanged"}
    ]},
    {"compound": "C[N+]1(C)CCC(OC(=O)C(O)(c2ccccc2)C2CCCC2)C1", "note": "(stereo not shown) [GP, (3-[(cyclopentylhydroxyphenylacetyl)oxy]-1,1-dimethyl-, bromide)]", "values": [
      {"measurement": "FPM values when MF strength was varied", "setting": "[2]", "result": "remained virtually unchanged"}
    ]},
    {"compound": "C[C@@H]1C[C@H]2[C@@H]3CCC4=CC(=O)C=C[C@]4(C)[C@@]3(Cl)[C@@H](O)C[C@]2(C)[C@@]1(OC(=O)c1ccco1)C(=O)CCl", "note": "[MF, mometasone furoate]", "values": [
      {"measurement": "MF FPM dose proportionality, slope", "setting": "[2]; FPM = drug mass stages 3 through MOC, MF 100, 200, 300 μg/actuation, NGI 30 LPM, n=3", "result": 0.48}
    ]}
  ]
}
